The structures appear in SMILES notation.

This experiment deals with platelet ADP receptors. Description: ARB binding assay (platelet ADP receptor binding, [3H]2-MeS-ADP). The note with it: relative activities of selected compounds in the ARB binding assay. Also on record: species or system human. As for the experimental part:
Utilizing the second assay the potency of inhibition of such compounds with respect to [^3H]2-MeS-ADP binding to whole platelets is determined. [^3H]2-MeS-ADP binding experiments are routinely performed with outdated human platelets collected by standard procedures at hospital blood banks. Apyrase-washed outdated platelets are prepared as follows (all steps at room temperature, if not indicated otherwise):
Outdated platelet suspensions are diluted with 1 volume of CGS and platelets pelleted by centrifugation at 1900×g for 45 minutes. Platelet pellets are resuspended at 3–6×10^9 platelets/ml in CGS containing 1 U/ml apyrase (grade V, Sigma, St. Louis, Mo.) and incubated for 15 minutes at 37° C. After centrifugation at 730×g for 20 minutes, pellets are resuspended in Hepes-Tyrode's buffer containing 0.1% BSA (Sigma, St. Louis, Mo.) at a concentration of 6.66×10^8 platelets/ml. Binding experiments are performed after >45 minutes resting of the platelets.
Alternatively, binding experiments are performed with fresh human platelets prepared as described in I.(Inhibition of ADP-Mediated Platelet Aggregation in vitro), except that platelets are resuspended in Hepes-Tyrode's buffer containing 0.1% BSA (Sigma, St. Louis, Mo.) at a concentration of 6.66×10^8 platelets/ml. Very similar results are obtained with fresh and outdated platelets.
A platelet ADP receptor binding assay using the tritiated potent agonist ligand [^3H]2-MeS-ADP (Jantzen, H. M. et al. (1999) Thromb. Hemost. 81:111–117) has been adapted to the 96-well microtiter format. In an assay volume of 0.2 ml Hepes-Tyrode's buffer with 0.1% BSA and 0.6% DMSO, 1×10^8 apyrase-washed platelets are preincubated in 96-well flat bottom microtiter plates for 5 minutes with serial dilutions of test compounds before addition of 1 nM [^3H]2-MeS-ADP ([^3H]2-methylthioadenosine-5′-diphosphate, ammonium salt; specific activity 48–49 Ci/mmole, obtained by custom synthesis from Amersham Life Science, Inc., Arlington Heights, Ill., or NEN Life Science Products, Boston, Mass.). Total binding is determined in the absence of test compounds. Samples for nonspecific binding may contain 10^−5 M unlabelled 2-MeS-ADP (RBI, Natick, Mass.). After incubation for 15 minutes at room temperature, unbound radioligand is separated by rapid filtration and two washes with cold (4–8° C.) Binding Wash Buffer (10 mM Hepes pH 7.4, 138 mM NaCl) using a 96-well cell harvester (Minidisc 96, Skatron Instruments, Sterling, Va.) and 8×12 GF/C glassfiber filtermats (Printed Filtermat A, for 1450 Microbeta, Wallac Inc., Gaithersburg, Md.). The platelet-bound radioactivity on the filtermats is determined in a scintillation counter (Microbeta 1450, Wallac Inc., Gaithersburg, Md.). Specific binding is determined by subtraction of non-specific binding from total binding, and specific binding in the presence of test compounds is expressed as % of specific binding in the absence of test compounds dilutions.
For `CCc1cc2c(N3CCN(C(=O)c4snnc4-c4ccccc4)CC3)ncnc2s1` [Example 348, [4-(6-Ethyl-thieno[2,3-d]pyrimidin-4-yl)-piperazin-1-yl]-(4-phenyl-[1,2,3]-thiadiazol-5-yl)-methanone], the “Relative Activity” value is “+ (>20 micromolar)”.

Take `CCc1cc2c(N3CCN(C(=O)[C@H](C)c4ccccc4)CC3)ncnc2s1` [Example 349, 1-[4-(6-Ethyl-thieno[2,3-d]pyrimidin-4-yl)-piperazin-1-yl]-2-phenyl-propan-1-one]: the “Relative Activity” value was “+ (>20 micromolar)”.

For the molecule `CCc1cc2c(N3CCN(C(=O)c4ccncc4)CC3)ncnc2s1` [Example 362, [4-(6-Ethyl-thieno[2,3-d]pyrimidin-4-yl)-piperazin-1-yl]-pyridin-4-yl-methanone], the “Relative Activity” value is “+ (>20 micromolar)”.

As for `CCc1cc2c(N3CCN(C(=O)CCCn4nnc5ccccc54)CC3)ncnc2s1` [Example 372, 4-Benzotriazol-1-yl-1-[4-(6-Ethyl-thieno[2,3-d]pyrimidin-4-yl)-piperazin-1-yl]-butan-1-one], the “Relative Activity” value was “++ (10–20 micromolar)”.

For `CCc1cc2c(N3CCN(C(=O)CCC(=O)OC)CC3)ncnc2s1` [Example 384, 4-[4-(6-Ethyl-thieno[2,3-d]pyrimidin-4-yl)-piperazin-1-yl]-4-oxo-butyric acid methyl ester], the “Relative Activity” value is reported as “+ (>20 micromolar)”.

As for `CCc1cc2c(N3CCN(C(=O)CCCC(=O)O)CC3)ncnc2s1` [Example 390, 5-[4-(6-Ethyl-thieno[2,3-d]pyrimidin-4-yl)-piperazin-1-yl]-5-oxo-pentanoic acid], the “Relative Activity” value was “+ (>20 micromolar)”.

With `CCc1cc2c(N3CCN(C(=O)CCCCC#N)CC3)ncnc2s1` [Example 395, 6-[4-(6-Ethyl-thieno[2,3-d]pyrimidin-4-yl)-piperazin-1-yl]-6-oxo-hexanenitrile], the “Relative Activity” value is reported as “+ (>20 micromolar)”.

Take `CCc1cc2c(N3CCN(C(=O)c4ccc(-c5ccccc5)s4)CC3)ncnc2s1` [Example 408, [4-(6-Ethyl-thieno[2,3-d]pyrimidin-4-yl)-piperazin-1-yl]-(5-phenyl-thiophen-2-yl)-methanone]: the “Relative Activity” value is recorded as “++ (10–20 micromolar)”.

Take `CCc1cc2c(N3CCN(C(=O)CCCSc4nccn4-c4ccccc4)CC3)ncnc2s1` [Example 429, 1-[4-(6-Ethyl-thieno[2,3-d]pyrimidin-4-yl)-piperazin-1-yl]-4-(1-phenyl-1H-imidazol-2-ylsulfanyl)-butan-1-one]: the “Relative Activity” value is “+ (>20 micromolar)”.

For `CCc1cc2c(N3CCN(C(=O)CCCNc4ncccn4)CC3)ncnc2s1` [Example 430, 1-[4-(6-Ethyl-thieno[2,3-d]pyrimidin-4-yl)-piperazin-1-yl]-4-(pyrimidin-2-ylamino)-butan-1-one], the “Relative Activity” value is on record as “+ (>20 micromolar)”.

Take `CCc1cc2c(N3CCN(C(=O)C(c4ccccc4)N4CCNCC4)CC3)ncnc2s1` (stereo not drawn) [Example 432, 1-[4-(6-Ethyl-thieno[2,3-d]pyrimidin-4-yl)-piperazin-1-yl]-2-phenyl-2-piperazin-1-yl-ethanone]: the “Relative Activity” value is recorded as “+ (>20 micromolar)”.

For `CCc1cc2c(N3CCN(C(=O)c4ccc5ccccc5n4)CC3)ncnc2s1` [Example 453, [4-(6-Ethyl-thieno[2,3-d]pyrimidin-4-yl)-piperazin-1-yl]-quinolin-2-yl-methanone], the “Relative Activity” value is reported as “+ (>20 micromolar)”.

These data come from US7115741B2, “4-thieno[2,3-D]pyrimidin-4-YL piperazine compounds” (priority 2001, dated 2006).
